{"source": "patent US20160081947A1", "about": "“SELECTIVE LSD1 AND DUAL LSD1/MAO-B INHIBITORS FOR MODULATING DISEASES ASSOCIATED WITH ALTERATIONS IN PROTEIN CONFORMATION” (ORYZON GENOMICS S.A., priority 2010, published 2016)", "key": {"[1]": {"system": "SH-SY5Y cells", "test": "Western blot for dimethylated H3K4 in SH-SY5Y cells", "format": "cell-based", "text": "B-actin was used as a loading control."}, "[2]": {"system": "R6/2 mice", "test": "Two-choice swim test in R6/2 mouse", "format": "in vivo", "conditions": "transgenic R6/2 mice", "text": "Eighty male and female R6/2 mice and 20 male and female wild-type littermate control mice (F1 generation) will be bred by Cerebricon at FELASA compliant National Animal Facility Center Kuopio by mating (F0 generation) WT males (C57BL6CBA F1 hybrid, JAX) with ovarian transferred (01) TG females (JAX). Breeder animals receive igloos instead of play tunnels, nylabone and cotton nestlets and use Purina diet 5008. Upon weaning, pups receive Purina diet 5001.\nSertraline will be made fresh daily by diluting to 1% TWEEN® 80 in ddH2°.\nTwo-Choice Swim Test: The two-choice swim test is performed at age week 9. The swim tank (dimensions: 70 cm×30 cm×30 cm) is filled with water (26±1° C.) no higher than 1 cm from the top of a hidden escape platform. The hidden cylindrical platform (diameter, 6.0 cm, height,˜9 cm) is placed either at right or left end of the tank. During acquisition of the task, each mouse is given six training trials per day to swim towards or away from the right end (counterbalanced across subjects) to escape onto the platform. […] A choice is recorded when a mouse moves towards one end and swims beyond 20 cm from the center. If the mouse fails to make a choice within about 15 minutes a “no choice” is recorded. […] In all trials, choice, latency and “no choice” are recorded."}, "[3]": {"test": "Body weight loss in chronically treated R6/2 mouse", "format": "in vivo", "conditions": "R6/2 mice, 5 mg/kg or 10 mg/kg IP per day, chronic", "text": "More easily measured is body weight loss.\nIn the R6/2 mouse study described above the weight of the animals were monitored to determine if the LSD1 or LSD1/MAO-B dual inhibitor cause weight loss in chronically treated animals. […] ."}, "[4]": {"system": "mouse haloperidol model", "test": "Mouse haloperidol model of catalepsy", "format": "in vivo", "conditions": "control caffeine", "text": "See, e.g., East et al. (2010), Bioorg. Med Chem. Lett., August 15; 20(16):4901-5, Epub 2010 Jun. 25."}, "[5]": {"system": "R6/2 mice", "test": "Longevity / survival study in R6/2 mouse", "conditions": "for survival versus vehicle and sertraline treated animals: 10 mg/kg", "description": "The solutions are made and stored according to instructions provided by the sponsor (storage conditions and expiration day of solution).\nBody weight is measured starting at age of four weeks and two times per week on the same day (i.e., Monday and Thursday) until end of the study. For convenience this is done just prior to animals receiving doses for those days. Animals are monitored twice-a-day by laboratory personnel (8 am and 4 pm) for “survival.” It is most optimal to measure “true survival” that is when the mouse has no detectable heartbeat. Since IACUC restrictions prevent this then using a definable and quantifiable endpoint for “survival” need to be used (see section 2.7 humane end-points). […] For instance, body temperature changes can drop just before death but many R6/2 mice show spontaneous death without preceding body temperature changes. More easily measured is body weight loss. […] Again mice that die spontaneously may not show such acute body weight changes. For these alternative measures combining these “survival” data (body weight or temperature decrease) with “survival” of spontaneous death mice (age found dead in a cage) is suitable."}, "[6]": {"target": "T1, Human recombinant monoamine oxidase MAO-A (Homo sapiens, UniProt P21397)", "T1 construct": "purchased Sigma Aldrich", "T1 sequence (P21397 1-527)": "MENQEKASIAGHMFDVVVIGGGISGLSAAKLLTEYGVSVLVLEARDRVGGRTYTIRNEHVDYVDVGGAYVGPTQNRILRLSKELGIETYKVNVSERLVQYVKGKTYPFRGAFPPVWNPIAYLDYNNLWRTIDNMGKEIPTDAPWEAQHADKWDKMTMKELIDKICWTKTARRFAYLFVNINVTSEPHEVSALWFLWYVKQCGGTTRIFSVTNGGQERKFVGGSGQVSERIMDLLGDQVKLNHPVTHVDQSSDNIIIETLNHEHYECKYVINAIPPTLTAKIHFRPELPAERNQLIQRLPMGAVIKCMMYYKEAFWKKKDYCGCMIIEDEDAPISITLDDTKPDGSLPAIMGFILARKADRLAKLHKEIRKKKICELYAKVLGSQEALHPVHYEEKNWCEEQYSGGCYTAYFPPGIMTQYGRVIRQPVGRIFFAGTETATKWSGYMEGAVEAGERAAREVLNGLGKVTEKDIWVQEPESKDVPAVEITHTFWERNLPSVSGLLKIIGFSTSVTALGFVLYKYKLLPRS", "test": "MAO-A inhibition assay (kynuramine fluorescence)", "format": "biochemical", "text": "Human recombinant monoamine oxidase proteins MAO-A and MAO-B were purchased from Sigma Aldrich. MAOs catalyze the oxidative deamination of primary, secondary and tertiary amines. In order to monitor MAO enzymatic activities and/or their inhibition rate by inhibitor(s) of interest, a fluorescent-based (inhibitor)-screening assay was set up. 3-(2-Aminophenyl)-3-oxopropanamine (kynuramine dihydrobromide, Sigma Aldrich), a non fluorescent compound was chosen as a substrate. Kynuramine is a non-specific substrate for both MAOs activities. While undergoing oxidative deamination by MAO activities, kynuramine is converted into 4-hydroxyquinoline (4-HQ), a resulting fluorescent product.\nThe monoamine oxidase activity was estimated by measuring the conversion of kynuramine into 4-hydroxyquinoline. Assays were conducted in 96-well black plates with clear bottom (Corning) in a final volume of 100 μL. The assay buffer was 100 mM HEPES, pH 7.5. Each experiment was performed in triplicate within the same experiment. […] The conversion of kynuramine to 4-hydroxyquinoline, was monitored by fluorescence (excitation at 320 nm, emission at 360 nm) using a microplate reader (Infinite 200, Tecan). Arbitrary units were used to measure levels of fluorescence produced in the absence and/or in the presence of inhibitor. […] The Ki (TC50) of each inhibitor was determined at Vmax/2."}, "[7]": {"system": "Drosophila melanogaster expressing HD-Q120", "test": "Eye (rhabdomere) degeneration in Huntington disease fly line B-8533", "format": "in vivo", "conditions": "1 μM and 5 μM", "text": "The eye of the fruit fly, Drosophila melanogaster, provides an ideal model system for studying neuronal survival. Each eye consists of approximately 800 units called ommatidia arranged in a regular pattern and the photoreceptors that compose each ommatidium exist in an ordered trapezoidal array. The presence and organization of these cells can be readily assessed using a technique called optical neutralization of the cornea (Franceschini and Kirschfeld, 1971).\nThis technique is being used in a screen for compounds that can rescue the neurodegenerative phenotype of a Drosophila model of Huntingtons disease (HD), fly line B-8533 (Jackson et al., 1998). This line contains a P-element construct inserted on the second chromosome, P{w+ gmr.HD-Q120)}. The construct contains a w+ visible eye-color marker, which enables confirmation of the presence of the insertion. […]\nThe now three- to ten-day-old flies are added to the vials (six to ten females and three males in each), incubated at 25° for seven to ten days. […] F1 eclosion-start date is noted and males and females are counted. […] Ommatidia are scored for number of visible rhabdomeres (0 to 7). […] Significance can be determined by the Mann-Whitney U-test or one-tailed student's T-test. […]"}}, "note": "Entries after “also recorded” stand apart in the source; their conditions may differ. Like-named read-outs stand apart in the source and are kept apart here.", "data": [{"smiles": "NC(=O)CNC1CC1c1ccc(OCc2ccccc2)cc1", "note": "(stereo not shown) [Compound Dual-1]", "values": [{"measurement": "levels of dimethylated H3K4 (western blot)", "setting": "[1]; 100 μM, one, two and three days", "value": "increases H3K4 methylation in cells in a time dependent manner; also recorded: increases levels of dimethylated H3K4 in cells in a time dependent manner"}, {"measurement": "potency at increasing global dimethylated H3K4 levels as compared to tranylcypromine", "setting": "[1]; Dual-1 100 μM vs parnate 250 μM", "value": "ten-fold or more potent"}, {"measurement": "other parameters of two-choice swim test", "setting": "[2]; 5 mg/kg ip", "value": "clear trend (NS)"}, {"measurement": "performance in two-choice swim test (latency to find the platform)", "setting": "[2]; 5 mg/kg ip once-a-day, age week 9, 5 mg/kg", "value": "significantly improved the performance; also recorded: improved response in the two-choice swim test"}, {"measurement": "body weight loss compared to transgenic animals treated with vehicle or sertraline", "setting": "[3]", "value": "caused no significant weight loss; also recorded: did not have substantially different weight losses"}, {"measurement": "rescue of toxin induced deficit (catalepsy)", "setting": "[4]", "value": "rescue the toxin induced deficit in a manner similar to or better than control compound caffeine or no treatment"}, {"measurement": "longevity (overall survival)", "setting": "[5]; R6/2 mouse study", "value": "can increase the longevity"}, {"measurement": "survival versus vehicle and sertraline treated animals", "setting": "[5]; female R6/2 mice", "value": "survived longer"}, {"measurement": "survival versus vehicle and sertraline treated animals", "setting": "[5]; male and female R6/2 mice", "value": "survived longer"}]}, {"smiles": "CN1CCN(C(=O)CNC2CC2c2ccc(OCc3ccccc3)cc2)CC1", "note": "(stereo not shown) [Compound Selective-1]", "values": [{"measurement": "IC50", "setting": "[6]", "value": "> 1000", "unit": "nM"}, {"measurement": "rhabdomere degeneration as compared to vehicle treated flies", "setting": "[7]; day 2", "value": "reduced rhadomere degeneration"}, {"measurement": "rescue of eye degeneration phenotype as compared to vehicle treated fly", "setting": "[7]; day not stated", "value": "in a concentration dependent manner rescues the eye degeneration phenotype"}]}, {"smiles": "CN1CCN(C(=O)CNC2CC2c2ccc(C3CC3)cc2)CC1", "note": "(stereo not shown) [Selective-2]", "values": [{"measurement": "IC50", "setting": "[6]; read-out: MAO-A IC50", "value": "> 1000", "unit": "nM"}]}]}
